Results on 13 compounds are retold here after patent publication US20250051321A1, “TRICYCLIC DERIVATIVE AND PREPARATION METHOD THEREFOR AND APPLICATION THEREOF” (SHANGHAI JEMINCARE PHARMACEUTICAL CO., LTD., priority 2021, published 2025).

One experiment has as its system plasma LPA 18:1 and LPA 18:2. In words: Human plasma ex vivo assay (LPA 18:1 / 18:2 by LC-MS/MS). It counts as biochemical. The following applies: 37° C., 2 hours, LPA 18:1, read-out: Human plasma ex vivo assay IC50 (18:1 LPA). The essentials:
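Human plasma incubated 2 h at 37° C with compound (8 points, 1:3 dilution, top 10 μM, 0.1% DMSO), then quenched with 0.1% FA containing LPA 17:0 internal standard.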
Regarding `CN(c1nc(-c2ccc(F)cc2)c(C#N)s1)c1c2c(nc3c(F)cc(N4CC5(CN(CC(=O)N6CC(CO)C6)C5)C4)cc13)CCC2` [Example A25], the concentration for half-maximal inhibition (IC50) worked out at 0.251 µM.

In the case of `CN(c1nc(-c2ccc(F)cc2)c(C#N)s1)c1c2c(nc3ccc(N4CCN(S(C)(=O)=O)C[C@@H]4CO)cc13)CCC2` [Example B1], the IC50 stood at 0.176 µM.

`CN(c1nc(-c2ccc(F)cc2)c(C#N)s1)c1c2c(nc3ccc(N4CCN(S(C)(=O)=O)C[C@H]4CO)cc13)CCC2` [Example B2]: the IC50 turned out to be 0.177 µM.

On to `CN(c1nc(-c2ccc(F)cc2)c(C#N)s1)c1c2c(nc3c(F)cc(N4CCN(S(C)(=O)=O)[C@H](CO)C4)cc13)CCC2` [Example B3], for which the IC50 was found to be 0.17 µM.

On to `CN(c1nc(-c2ccc(F)cc2)c(C#N)s1)c1c2c(nc3c(F)cc(N4CCN(S(C)(=O)=O)[C@@H](CO)C4)cc13)CCC2` [Example B4], for which the IC50 was 0.219 µM.

As for `CN(c1nc(-c2ccc(F)cc2)c(C#N)s1)c1c2c(nc3c(F)cc(N4CC5(CN(C(=O)[C@@H]6CCOC6)C5)C4)cc13)CCC2` [Example C2], the IC50 worked out at 0.402 µM.

In the case of `CN(c1nc(-c2ccc(F)cc2)c(C#N)s1)c1c2c(nc3ncc(N4CC5(CN(C(=O)[C@H]6CCOC6)C5)C4)cc13)CCC2` [Example C3], the IC50 worked out at 0.141 µM.

For `CN(c1nc(-c2ccc(F)cc2)c(C#N)s1)c1c2c(nc3ncc(N4CC5(CN(C(=O)[C@@H]6CCOC6)C5)C4)cc13)CCC2` [Example C4], the IC50 came out at 0.114 µM.

In the case of `CN(c1nc(-c2ccc(F)cc2)c(C#N)s1)c1c2c(nc3c(F)cc(N4CCN(C(=O)[C@@H]5CCOC5)CC4)cc13)CCC2` [Example C6], the half-maximal inhibitory concentration (IC50) is 0.232 µM.

With `CN(c1nc(-c2ccc(F)cc2)c(C#N)s1)c1c2c(nc3c(F)cc(N4CCN(C(=O)[C@H]5CCOC5)CC4)cc13)CCC2` [Example C7], the IC50 was determined as 0.354 µM.

On to `CN(c1nc(-c2ccc(F)cc2)c(C#N)s1)c1c2c(nc3c(F)cc(N4CC5(CCN(C(=O)[C@@H]6CCOC6)CC5)C4)cc13)CCC2` [Example C9], for which the half-inhibitory concentration (IC50) came out at 0.215 µM.

In the case of `CN(c1nc(-c2ccc(F)cc2)c(C#N)s1)c1c2c(nc3ccc(N4CC5(CN(C(=O)[C@H]6CCOC6)C5)C4)nc13)CCO2` [Example C10], the half-maximal inhibitory concentration (IC50) was 0.147 µM.

For `CN(c1nc(-c2ccc(F)cc2)c(C#N)s1)c1c2c(nc3c(F)cc(N4CC5(CN(C(=O)[C@H]6CCOC6)C5)C4)cc13)CCO2` [Example C12], the half-inhibitory concentration (IC50) was determined as 0.292 µM.

The same experiment, now with this note: 37° C., 2 hours, LPA 18:2, read-out: Human plasma ex vivo assay IC50 (18:2 LPA).
As for `CN(c1nc(-c2ccc(F)cc2)c(C#N)s1)c1c2c(nc3c(F)cc(N4CC5(CN(CC(=O)N6CC(CO)C6)C5)C4)cc13)CCC2` [Example A25], the half-inhibitory concentration (IC50) came to 0.269 µM.

As for `CN(c1nc(-c2ccc(F)cc2)c(C#N)s1)c1c2c(nc3ccc(N4CCN(S(C)(=O)=O)C[C@@H]4CO)cc13)CCC2` [Example B1], the IC50 turned out to be 0.169 µM.

On to `CN(c1nc(-c2ccc(F)cc2)c(C#N)s1)c1c2c(nc3ccc(N4CCN(S(C)(=O)=O)C[C@H]4CO)cc13)CCC2` [Example B2], for which the IC50 came to 0.201 µM.

Take `CN(c1nc(-c2ccc(F)cc2)c(C#N)s1)c1c2c(nc3c(F)cc(N4CCN(S(C)(=O)=O)[C@H](CO)C4)cc13)CCC2` [Example B3]: the half-inhibitory concentration (IC50) is 0.165 µM.

Consider `CN(c1nc(-c2ccc(F)cc2)c(C#N)s1)c1c2c(nc3c(F)cc(N4CCN(S(C)(=O)=O)[C@@H](CO)C4)cc13)CCC2` [Example B4], for which the 50% inhibitory concentration (IC50) came to 0.253 µM.

As to `CN(c1nc(-c2ccc(F)cc2)c(C#N)s1)c1c2c(nc3c(F)cc(N4CC5(CN(C(=O)[C@@H]6CCOC6)C5)C4)cc13)CCC2` [Example C2], the IC50 came out at 0.365 µM.

In the case of `CN(c1nc(-c2ccc(F)cc2)c(C#N)s1)c1c2c(nc3ncc(N4CC5(CN(C(=O)[C@H]6CCOC6)C5)C4)cc13)CCC2` [Example C3], the half-inhibitory concentration (IC50) came out at 0.135 µM.

As to `CN(c1nc(-c2ccc(F)cc2)c(C#N)s1)c1c2c(nc3ncc(N4CC5(CN(C(=O)[C@@H]6CCOC6)C5)C4)cc13)CCC2` [Example C4], the IC50 was found to be 0.0892 µM.

Regarding `CN(c1nc(-c2ccc(F)cc2)c(C#N)s1)c1c2c(nc3c(F)cc(N4CCN(C(=O)[C@@H]5CCOC5)CC4)cc13)CCC2` [Example C6], the IC50 is 0.264 µM.

`CN(c1nc(-c2ccc(F)cc2)c(C#N)s1)c1c2c(nc3c(F)cc(N4CCN(C(=O)[C@H]5CCOC5)CC4)cc13)CCC2` [Example C7]: the IC50 stood at 0.401 µM.

With `CN(c1nc(-c2ccc(F)cc2)c(C#N)s1)c1c2c(nc3c(F)cc(N4CC5(CCN(C(=O)[C@@H]6CCOC6)CC5)C4)cc13)CCC2` [Example C9], the IC50 was 0.234 µM.

For the compound `CN(c1nc(-c2ccc(F)cc2)c(C#N)s1)c1c2c(nc3ccc(N4CC5(CN(C(=O)[C@H]6CCOC6)C5)C4)nc13)CCO2` [Example C10], the IC50 was determined as 0.135 µM.

On to `CN(c1nc(-c2ccc(F)cc2)c(C#N)s1)c1c2c(nc3c(F)cc(N4CC5(CN(C(=O)[C@H]6CCOC6)C5)C4)cc13)CCO2` [Example C12], for which the half-maximal inhibitory concentration (IC50) is 0.347 µM.

The target in the next experiment is ATX (Homo sapiens (Human), UniProt Q13822). In words: ATX enzyme inhibition assay (Amplex UltraRed/choline oxidase/HRP, 16:0 Lyso PC substrate). It counts as biochemical. The following applies: assay buffer pH 7.5; read-out: IC50 (nM) pH 7.5. The procedure, abridged:
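ATX (2× stock […]) preincubated with compound for 10 min at room temperature in assay buffer at pH 8.5 or 7.5. Reaction started with 16:0 Lyso PC, choline oxidase, HRP and Amplex UltraRed (2.5× working stock); fluorescence read kinetically (ex 550/em 590 nm) for 60 min.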
Consider `CN(c1nc(-c2ccc(F)cc2)c(C#N)s1)c1c2c(nc3c(F)cc(N4CC5(CN(CC(=O)N6CC(CO)C6)C5)C4)cc13)CCC2` [Example A25], for which the concentration for half-maximal inhibition (IC50) is 541 nM.

As to `CN(c1nc(-c2ccc(F)cc2)c(C#N)s1)c1c2c(nc3ccc(N4CCN(S(C)(=O)=O)C[C@H]4CO)cc13)CCC2` [Example B2], the half-inhibitory concentration (IC50) was 141 nM.

As for `CN(c1nc(-c2ccc(F)cc2)c(C#N)s1)c1c2c(nc3c(F)cc(N4CCN(S(C)(=O)=O)[C@H](CO)C4)cc13)CCC2` [Example B3], the concentration for half-maximal inhibition (IC50) was found to be 171 nM.

On to `CN(c1nc(-c2ccc(F)cc2)c(C#N)s1)c1c2c(nc3c(F)cc(N4CCN(S(C)(=O)=O)[C@@H](CO)C4)cc13)CCC2` [Example B4], for which the IC50 came to 611 nM.

Regarding `CN(c1nc(-c2ccc(F)cc2)c(C#N)s1)c1c2c(nc3c(F)cc(N4CC5(CN(C(=O)[C@@H]6CCOC6)C5)C4)cc13)CCC2` [Example C2], the half-maximal inhibitory concentration (IC50) stood at 41.6 nM.

In the case of `CN(c1nc(-c2ccc(F)cc2)c(C#N)s1)c1c2c(nc3ncc(N4CC5(CN(C(=O)[C@H]6CCOC6)C5)C4)cc13)CCC2` [Example C3], the IC50 worked out at 32 nM.

As to `CN(c1nc(-c2ccc(F)cc2)c(C#N)s1)c1c2c(nc3ncc(N4CC5(CN(C(=O)[C@@H]6CCOC6)C5)C4)cc13)CCC2` [Example C4], the concentration for half-maximal inhibition (IC50) amounted to 38.6 nM.

On to `CN(c1nc(-c2ccc(F)cc2)c(C#N)s1)c1c2c(nc3c(F)cc(N4CCN(C(=O)[C@@H]5CCOC5)CC4)cc13)CCC2` [Example C6], for which the concentration for half-maximal inhibition (IC50) turned out to be 1230 nM.

On to `CN(c1nc(-c2ccc(F)cc2)c(C#N)s1)c1c2c(nc3c(F)cc(N4CCN(C(=O)[C@H]5CCOC5)CC4)cc13)CCC2` [Example C7], for which the IC50 came out at 1140 nM.

In the case of `CN(c1nc(-c2ccc(F)cc2)c(C#N)s1)c1c2c(nc3c(F)cc(N4CC5(CCN(C(=O)[C@@H]6CCOC6)CC5)C4)cc13)CCC2` [Example C9], the IC50 was 78.5 nM.

In the case of `CN(c1nc(-c2ccc(F)cc2)c(C#N)s1)c1c2c(nc3ccc(N4CC5(CN(C(=O)[C@H]6CCOC6)C5)C4)nc13)CCO2` [Example C10], the IC50 worked out at 33.6 nM.

Consider `CN(c1nc(-c2ccc(F)cc2)c(C#N)s1)c1c2c(nc3c(F)cc(N4CC5(CN(C(=O)[C@H]6CCOC6)C5)C4)cc13)CCO2` [Example C12], for which the IC50 turned out to be 82.2 nM.

The experiment is the same for the next values; noted with them: assay buffer pH 8.5; read-out: IC50 (nM) pH 8.5.
With `CN(c1nc(-c2ccc(F)cc2)c(C#N)s1)c1c2c(nc3c(F)cc(N4CC5(CN(CC(=O)N6CC(CO)C6)C5)C4)cc13)CCC2` [Example A25], the concentration for half-maximal inhibition (IC50) came to 75 nM.

Regarding `CN(c1nc(-c2ccc(F)cc2)c(C#N)s1)c1c2c(nc3ccc(N4CCN(S(C)(=O)=O)C[C@@H]4CO)cc13)CCC2` [Example B1], the IC50 came out at 112 nM.

Take `CN(c1nc(-c2ccc(F)cc2)c(C#N)s1)c1c2c(nc3ccc(N4CCN(S(C)(=O)=O)C[C@H]4CO)cc13)CCC2` [Example B2]: the IC50 is 58.8 nM.

Regarding `CN(c1nc(-c2ccc(F)cc2)c(C#N)s1)c1c2c(nc3c(F)cc(N4CCN(S(C)(=O)=O)[C@H](CO)C4)cc13)CCC2` [Example B3], the IC50 came out at 41.2 nM.

Regarding `CN(c1nc(-c2ccc(F)cc2)c(C#N)s1)c1c2c(nc3c(F)cc(N4CCN(S(C)(=O)=O)[C@@H](CO)C4)cc13)CCC2` [Example B4], the IC50 is 66.5 nM.

For the compound `CN(c1nc(-c2ccc(F)cc2)c(C#N)s1)c1c2c(nc3c(F)cc(N4CC5(CN(C(=O)[C@@H]6CCOC6)C5)C4)cc13)CCC2` [Example C2], the half-inhibitory concentration (IC50) came to 23.8 nM.

For the compound `CN(c1nc(-c2ccc(F)cc2)c(C#N)s1)c1c2c(nc3ncc(N4CC5(CN(C(=O)[C@H]6CCOC6)C5)C4)cc13)CCC2` [Example C3], the IC50 turned out to be 22.7 nM.

As for `CN(c1nc(-c2ccc(F)cc2)c(C#N)s1)c1c2c(nc3ncc(N4CC5(CN(C(=O)[C@@H]6CCOC6)C5)C4)cc13)CCC2` [Example C4], the IC50 amounted to 27.4 nM.

On to `CN(c1nc(-c2ccc(F)cc2)c(C#N)s1)c1c2c(nc3c(F)cc(N4CCN(C(=O)[C@@H]5CCOC5)CC4)cc13)CCC2` [Example C6], for which the 50% inhibitory concentration (IC50) turned out to be 196 nM.

For `CN(c1nc(-c2ccc(F)cc2)c(C#N)s1)c1c2c(nc3c(F)cc(N4CCN(C(=O)[C@H]5CCOC5)CC4)cc13)CCC2` [Example C7], the 50% inhibitory concentration (IC50) is 193 nM.

In the case of `CN(c1nc(-c2ccc(F)cc2)c(C#N)s1)c1c2c(nc3c(F)cc(N4CC5(CCN(C(=O)[C@@H]6CCOC6)CC5)C4)cc13)CCC2` [Example C9], the IC50 came out at 23 nM.

`CN(c1nc(-c2ccc(F)cc2)c(C#N)s1)c1c2c(nc3ccc(N4CC5(CN(C(=O)[C@H]6CCOC6)C5)C4)nc13)CCO2` [Example C10]: the IC50 turned out to be 18.6 nM.

On to `CN(c1nc(-c2ccc(F)cc2)c(C#N)s1)c1c2c(nc3c(F)cc(N4CC5(CN(C(=O)[C@H]6CCOC6)C5)C4)cc13)CCO2` [Example C12], for which the IC50 was found to be 52.6 nM.

Broadly, the IC50 is the concentration needed to halve the response being measured.
